Patent publication US12162867B2, “Inhibitors of RNA helicase DHX9 and uses thereof” (ACCENT THERAPEUTICS, INC., priority 2022, dated 2024)
Like-named read-outs stand apart in the source and are kept apart here.

Legend:
Assay type in all cases: cell-based
LS411N cells = test: DHX9 cellular proliferation assay (CellTiter-Glo), LS411N (CRC-MSI); settings: Homo sapiens, LS-411N, read-out: LS411N (CRC-MSI-H) Antiproliferative IC50
NCI-H747 cells = test: DHX9 cellular proliferation assay (CellTiter-Glo), NCI-H747 (CRC-MSS); settings: Homo sapiens
[1] = tested on: circBRIP1 in HCT116 cells; test: DHX9 circBRIP1 cellular target engagement TaqMan Multiplex assay (qPCR); settings: Homo sapiens, read-out: DHX9 Cellular Target Engagement EC50
[2] = tested on: circBRIP1 in HCT116 cells; test: DHX9 circBRIP1 cellular target engagement SYBR Green assay (qPCR); settings: Homo sapiens, HCT-116, circBRIP1, HCT116 cells, read-out: DHX9 Cellular Target Engagement EC50
[3] = NCI-H747, NCI-H747, performed at Pharmaron, read-out: H747 (CRC-MSS) Antiproliferative IC50
[4] = HCT-116, circBRIP1, HCT116 cells, * Taqman assay was used
[5] = LS411N, CRC-MSI-H, performed at Pharmaron
[6] = NCI-H747, NCI-H747, CRC-MSS, performed at Pharmaron, read-out: H747 (CRC-MSS) Antiproliferative IC50
[7] = HCT-116, 72 h, circBRIP1, HCT116 cells, 72 hours, Taqman assay (marked *)

Row | IC50 (NCI-H747 cells; [3]) [nM] | EC50 [1, 4] [nM] | Compound | IC50 (LS411N cells; LS411N, performed at Pharmaron) [nM] | other results
1 | 1850 | 45.4 | Cc1sc(C(=O)Nc2cc(Cl)cc(NS(C)(=O)=O)c2)cc1-c1ncc(C2CCN(CC(F)(F)F)CC2)cc1F [Example 618] | 132 | 
2 |  |  | CCOc1cnc(-c2cc(C(=O)Nc3cc(Cl)cc(NS(=O)(=O)CC)c3)sc2C)nc1 [Example 365] |  | IC50 (LS411N cells; [5]): 116 nM; IC50 (NCI-H747 cells; [6]): > 10000 nM; EC50 [1, 7]: 33.9 nM
3 | 8770 | 31.5 | Cn1cc(C(=O)Nc2cc(Cl)cc(NS(C)(=O)=O)c2)cc1-c1ncc(N2CCC3(CC2)COC3)cc1F [Example 475] | 81.2 | 
4 | 8370 | 45.8 | CN1C(=O)N(c2ccc(-c3cc(C(=O)Nc4cc(Cl)cc(NS(C)(=O)=O)c4)cn3C)nc2)C(=O)C1(C)C [Example 603] | 1090 | 
5 | 6530 | 30 | Cc1cc(N2CC(F)(F)C2)cnc1-c1cc(C(=O)Nc2cc(Cl)cc(NS(C)(=O)=O)c2)sc1C [Example 537] | 82.8 | 
6 | 3010 | 56.5 | CCS(=O)(=O)Nc1cc(Cl)cc(NC(=O)c2cc(-c3ncc(OC(C)C)cn3)c(C)s2)c1 [Example 565] | 58.2 | 
7 | > 10000 | 35.2 | COC1CN(c2ccc(-c3cc(C(=O)Nc4cc(Cl)cc(NS(C)(=O)=O)c4)cn3C)nc2)C1 [Example 465] | 115 | 
8 | 1350 | 43 | Cn1cc(C(=O)Nc2cc(Cl)cc(NS(C)(=O)=O)c2)cc1-c1ncc(N2CCC(F)(F)C2)cc1F [Example 525] | 144 | 
9 | 7410 | 37.2 | Cc1sc(C(=O)Nc2cc(Cl)cc(NS(C)(=O)=O)c2)cc1-c1ncc(N2CC3(C2)CC(F)(F)C3)cc1F [Example 511] | 149 | 
10 | 6460 | 92.6 | Cc1cc(C(=O)Nc2cc(Cl)cc(NS(C)(=O)=O)c2)cn1-c1ncc(N2CC(F)(F)C2)cc1OCC(F)(F)F [Example 708] | 140 | 
11 | 6630 | 13.5 | Cc1sc(C(=O)Nc2cc(Cl)cc(NS(C)(=O)=O)c2)cc1-c1ncc(N2CCC3(CC2)COC3)cc1F [Example 474] | 87.2 | 
12 | 7900 | 54.9 | Cc1sc(C(=O)Nc2cc(Cl)cc(NS(C)(=O)=O)c2)cc1-c1ncc(N(C)S(C)(=O)=O)cn1 [Example 720] | 452 | 
13 | 4470 | 46.6 | Cn1cc(C(=O)Nc2cc(Cl)cc(NS(C)(=O)=O)c2)cc1-c1ccc(OC(C)(C)C)cn1 [Example 555] | 121 | 
14 | 7260 | 93.3 | Cc1sc(C(=O)Nc2cc(F)cc(NS(C)(=O)=O)c2)cc1-c1ncc(N2CC(C(F)(F)F)C2)cc1F [Example 501] | 274 | 
15 | > 10000 | 25.7 | COc1cc(N2CC(F)(F)C2)cnc1-c1cc(C(=O)Nc2cc(Cl)cc(NS(C)(=O)=O)c2)cn1C [Example 462] | 257 | 
16 |  |  | CCS(=O)(=O)Nc1cc(Cl)cc(NC(=O)c2cc(-c3ncc(OC)cn3)c(C)s2)c1 [Example 353] |  | IC50 (LS411N cells; [5]): 111 nM; IC50 (NCI-H747 cells; [6]): 8490 nM; EC50 [1, 7]: 94 nM
17 | > 10000 | 35.6 | COC1CN(c2cnc(-n3cc(C(=O)Nc4cc(Cl)cc(NS(C)(=O)=O)c4)cc3C)nc2)C1 [Example 404] | 138 | 
18 | 6170 | 3 | Cc1ncc(OCc2cc(F)cc(F)c2)c(-c2cc(C(=O)Nc3cc(Cl)cc(NS(C)(=O)=O)c3)cn2C)n1 [Example 734] | 10.6 | 

Row | IC50 (NCI-H747 cells; [3]) [nM] | EC50 [1, 4] [nM] | Compound | IC50 (LS411N cells; LS411N, performed at Pharmaron) [nM] | other results
19 | 8780 | 21.6 | COC1CCN(c2ccc(-c3cc(C(=O)Nc4cc(Cl)cc(NS(C)(=O)=O)c4)cn3C)nc2)CC1 [Example 515, N-(3-chloro-5-methanesulfonamidophenyl)-5-[5-(4-methoxypiperidin-1-yl)pyridin-2-yl]-1-methyl-1H-pyrrole-3-carboxamide] | 89.3 | 
20 | > 10000 |  | Cc1cc(C(=O)Nc2cc(Cl)cc(NS(C)(=O)=O)c2)cn1-c1ncc(N2CC(F)(F)C2)cn1 [Example 418] | 139 | EC50 ([2]; ^+ SyBr assay was used): 67.4 nM
21 |  |  | CS(=O)(=O)Nc1cc(Br)cc(NC(=O)c2cc(-c3ncccn3)cs2)c1 [Example 25] |  | IC50 (LS411N cells; [5]): 99.1 nM; EC50 ([2]; SyBr assay (marked ^+)): 48 nM; IC50 (NCI-H747 cells; [6]): > 10000 nM
22 |  |  | CS(=O)(=O)Nc1cc(Cl)cc(NC(=O)c2cc(-c3ccc(F)cn3)n(CC(F)F)c2)c1 [Example 286] |  | IC50 (LS411N cells; [5]): 131 nM; EC50 ([2]; SyBr assay (marked ^+)): 2630 nM; IC50 (NCI-H747 cells; [6]): > 10000 nM
23 | > 10000 |  | Cc1sc(C(=O)Nc2cc(Cl)cc(NS(C)(=O)=O)c2)cc1-c1ncccc1OCc1cncc(F)c1 [Example 621] | 8.7 | EC50 ([2]; ^+ SyBr assay was used): 2 nM
24 | > 10000 |  | COCc1cnc(-c2cc(C(=O)Nc3cc(Cl)cc(NS(C)(=O)=O)c3)cn2C)nc1 [Example 690] | 183 | EC50 ([2]; ^+ SyBr assay was used): 55.7 nM
25 | > 10000 |  | COCc1ccc(-c2cc(C(=O)Nc3cc(Cl)cc(NS(C)(=O)=O)c3)cn2C)nc1 [Example 574] | 92.2 | EC50 ([2]; ^+ SyBr assay was used): 39.5 nM
26 | > 10000 |  | Cn1cc(C(=O)Nc2cc(Cl)cc(NS(C)(=O)=O)c2)cc1-c1ncc(N2CCCC2)cn1 [Example 520] | 118 | EC50 ([2]; ^+ SyBr assay was used): 40.2 nM
27 |  |  | CS(=O)(=O)Nc1cc(Br)cc(NC(=O)c2cc(-c3ccccn3)n(CC#N)c2)c1 [Example 95, N-(3-bromo-5-methanesulfonamidophenyl)-1-(cyanomethyl)-5-(pyridin-2-yl)-1H-pyrrole-3-carboxamide] |  | IC50 (LS411N cells): 1020 nM; EC50 ([2]; SyBr assay (marked ^+)): 179 nM; IC50 (NCI-H747 cells; NCI-H747, read-out: H747 (CRC-MSS) Antiproliferative IC50): 7990 nM
28 |  |  | CC(O)c1cc(C(=O)Nc2cc(Cl)cc(NS(C)(=O)=O)c2)cn1-c1ccccn1 (stereo not drawn) [Example 287] |  | IC50 (LS411N cells; [5]): 165 nM; EC50 ([2]; SyBr assay (marked ^+)): 232 nM; IC50 (NCI-H747 cells; [6]): > 10000 nM
29 |  |  | CS(=O)(=O)Nc1cc(Cl)cc(NC(=O)c2cc(-c3ncccc3OCc3ccccc3)c(CO)s2)c1 [Example 216] |  | IC50 (LS411N cells; [5]): 38.5 nM; EC50 ([2]; SyBr assay (marked ^+)): 12.7 nM; IC50 (NCI-H747 cells; [6]): > 10000 nM
30 | > 10000 |  | CCOc1ccc(-n2cc(C(=O)Nc3cc(Cl)cc(NS(C)(=O)=O)c3)cc2C)nc1 [Example 437] | 123 | EC50 ([2]; ^+ SyBr assay was used): 46.8 nM
31 | > 10000 |  | Cn1cc(C(=O)Nc2cc(Cl)cc(NS(C)(=O)=O)c2)cc1-c1ncccc1OCC1CC1 [Example 584] | 122 | EC50 ([2]; ^+ SyBr assay was used): 42.1 nM
32 |  |  | COc1ccc(-n2cc(C(=O)Nc3cc(Cl)cc(NS(C)(=O)=O)c3)cc2C)nc1 [Example 391] |  | IC50 (LS411N cells; [5]): 171 nM; EC50 ([2]; SyBr assay (marked ^+)): 63 nM; IC50 (NCI-H747 cells; [6]): > 10000 nM
33 |  |  | Cc1cc(C(=O)Nc2cc(Cl)cc(NS(C)(=O)=O)c2)cn1-c1ncccc1O [Example 281] |  | IC50 (LS411N cells; [5]): 367 nM; EC50 ([2]; SyBr assay (marked ^+)): 483 nM; IC50 (NCI-H747 cells; [6]): 7340 nM
34 |  |  | CS(=O)(=O)Nc1cc(Br)cc(NC(=O)c2cnn(-c3ccccc3OCc3ccccc3)c2)c1 [Example 51] |  | IC50 (LS411N cells; [5]): 259 nM; EC50 ([2]; SyBr assay (marked ^+)): 188 nM; IC50 (NCI-H747 cells; [6]): 6470 nM
35 | > 10000 |  | COc1cc(F)cnc1-c1cc(C(=O)Nc2cc(Cl)cc(NS(C)(=O)=O)c2)cn1C [Example 568, N-(3-chloro-5-methanesulfonamidophenyl)-5-(5-fluoro-3-methoxypyridin-2-yl)-1-methylpyrrole-3-carboxamide] | 349 | EC50 ([2]; ^+ SyBr assay was used): 57.5 nM
36 | > 10000 |  | CS(=O)(=O)Nc1cc(Cl)cc(NC(=O)c2cc(-c3ncccc3OCc3cncc(F)c3)cs2)c1 [Example 620, N-(3-chloro-5-methanesulfonamidophenyl)-4-{3-[(5-fluoropyridin-3-yl)methoxy]pyridin-2-yl}thiophene-2-carboxamide] | 26.4 | EC50 ([2]; ^+ SyBr assay was used): 6.2 nM
